According to patent US20060079453A1, “Hla binding peptides and their uses” (priority 2002, published 2006):

Experiments:
Assay in all cases: biochemical
Format in all cases: binding
HLA-DR DRB1*0101 (DR1) = HLA-DR DRB1*0101 (DR1) (Homo sapiens, UniProt P01903+P01911, A100R/D57E/F55L/F60I/F76Y/I96L/L162R/M171V/P40L/Q125E/R42F/V115G/Y59C); conditions: DRB1 *0101
HLA-DR DRB1*0301 (DR3) = HLA-DR DRB1*0301 (DR3) (Homo sapiens, UniProt P01903+P01911, A100K/A102G/A103R/A169T/F55Y/I96L/K41T/L162R/M171V/P40S/Q125H/Q178H/Q39Y/R42S/S66N/T106N/T262R/W38E/Y61H)
HLA-DR DRB1*0301 (DR3), sequence (P01903 26-254 limits assumed, other chains not shown): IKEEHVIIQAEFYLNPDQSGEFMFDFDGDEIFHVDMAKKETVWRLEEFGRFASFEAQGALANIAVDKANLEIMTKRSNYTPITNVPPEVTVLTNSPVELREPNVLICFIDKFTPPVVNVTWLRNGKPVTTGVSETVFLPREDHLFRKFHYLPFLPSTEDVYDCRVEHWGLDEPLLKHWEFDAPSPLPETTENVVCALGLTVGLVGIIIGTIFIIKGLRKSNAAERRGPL

HLA-DR DRB1*0401 (DR4) = HLA-DR DRB1*0401 (DR4) (Homo sapiens, UniProt P01903+P01911, A100K/A169T/F76Y/I96L/K127E/L162R/M171V/N62H/P40V/Q125Y/R42H/S133A/S149N/S66Y/V115G/V209L/W38E); conditions: DRB1 *0401
HLA-DR DRB1*0701 (DR7) = HLA-DR DRB1*0701 (DR7) (Homo sapiens, UniProt P01903+P01911, A100R/A102G/A103Q/D57E/D86V/E43K/F76Y/K127E/L162R/M171V/P40G/Q125H/Q99D/R33Q/R42Y/R54Q/S133A/S66F/T210M/V115G/Y107V/Y59L/Y89S); conditions: DRB1 *0701
HLA-DR DRB1*0802 (DR8) = HLA-DR DRB1*0802 (DR8) (Homo sapiens, UniProt P01903+P01911, A100R/A103L/A169T/F76Y/H45Y/I96F/K41T/L162R/M171V/P40S/Q125H/Q178H/Q39Y/Q99D/R218S/R42G/S66Y/V115G/W38E)
HLA-DR DRB1*0901 (DR9) = HLA-DR DRB1*0901 (DR9) (Homo sapiens, UniProt P01903+P01911, A100R/A103E/D57H/D86V/F55Y/F60I/F76Y/I96F/K127E/L162R/M171V/P40D/Q125H/Q99R/R33Q/R42F/S133A/S66N/T210M/V115G/W38K/Y107V/Y59G/Y89S); conditions: DRB1 *0901
HLA-DR DRB1*1101 (DR11) = HLA-DR DRB1*1101 (DR11) (Homo sapiens, UniProt P01903+P01911, A100R/A169T/A87E/I96F/K41T/L162R/M171V/P40S/Q125H/Q178H/Q39Y/Q99D/R42S/S66Y/T262R/V115G/W38E); conditions: DRB1 *1101
HLA-DR DRB1*1101 (DR11), sequence (P01903 26-254 limits assumed, other chains not shown): as above

HLA-DR DRB1*1302 (DR13) = HLA-DR DRB1*1302 (DR13) (Homo sapiens, UniProt P01903+P01911, A100E/A169T/K41T/L162R/M171V/P40S/Q125H/Q178H/Q39Y/Q99D/R42S/S66N/T262R/V115G/W38E/Y61H); conditions: DRBI *1302
HLA-DR DRB1*1302 (DR13), sequence (P01903 26-254 limits assumed, other chains not shown): as above

HLA-DR DRB3*0101 (DR52) = HLA-DR DRB3*0101 (DR52) (Homo sapiens, UniProt P01903+P79483)
HLA-DR DRB4*0101 (DR53) = HLA-DR DRB4*0101 (DR53) (Homo sapiens, UniProt P01903+P13762, G164S); conditions: DRB4 *0101
HLA-DR DRB5*0101 (DR51) = HLA-DR DRB5*0101 (DR51) (Homo sapiens, UniProt P01903+Q30154); conditions: DRB5 *0101
HLA-DR DRB1*1501 (DR15) = HLA-DR DRB1*1501 (DR15) (Homo sapiens, UniProt P01903+P01911); conditions: DRBI *1501

Structure (SMILES)	IC50 (HLA-DR DRB1*0101 (DR1))	IC50 (HLA-DR DRB1*0301 (DR3))	IC50 (HLA-DR DRB1*0401 (DR4))	IC50 (HLA-DR DRB1*0701 (DR7))	IC50 (HLA-DR DRB1*0802 (DR8))	IC50 (HLA-DR DRB1*0901 (DR9))	IC50 (HLA-DR DRB1*1101 (DR11))	IC50 (HLA-DR DRB1*1302 (DR13))	IC50 (HLA-DR DRB3*0101 (DR52))	IC50 (HLA-DR DRB4*0101 (DR53))	IC50 (HLA-DR DRB5*0101 (DR51))	IC50 (HLA-DR DRB1*1501 (DR15))
CC[C@H](C)[C@H](NC(=O)[C@H](Cc1ccccc1)NC(=O)[C@H](Cc1c[nH]c2ccccc12)NC(=O)CNC(=O)[C@H](Cc1ccccc1)NC(=O)[C@H](CC(C)C)NC(=O)[C@H](Cc1ccccc1)NC(=O)CNC(=O)[C@@H](N)CC(C)C)C(=O)N[C@@H](CCCCN)C(=O)N[C@@H](CO)C(=O)N[C@@H](CO)C(=O)N[C@@H](CC(N)=O)C(=O)N[C@@H](CCC(=O)O)C(=O)N[C@@H](C)C(=O)O	10 nM	> 75000 nM	1340 nM	2260 nM	1420 nM	1700 nM	7300 nM	10100 nM	681 nM	9280 nM	461 nM	
CC[C@H](C)[C@H](NC(=O)[C@@H](NC(=O)[C@H](Cc1c[nH]cn1)NC(=O)[C@@H](N)CC(C)C)C(C)C)C(=O)N[C@@H](CO)C(=O)N[C@@H](CC(N)=O)C(=O)N[C@@H](CC(=O)O)C(=O)N[C@H](C(=O)N[C@@H](CS)C(=O)N[C@@H](C)C(=O)N[C@@H](CCC(N)=O)C(=O)N[C@H](C(=O)N[C@@H](Cc1c[nH]cn1)C(=O)N1CCC[C@H]1C(=O)N[C@@H](CCC(N)=O)C(=O)O)C(C)C)C(C)C	789 nM	8320 nM	790 nM	17500 nM	> 123000 nM	32700 nM	> 50000 nM		1890 nM	1090 nM	> 200000 nM	22800 nM
CC(C)C[C@H](NC(=O)[C@H](CCC(=O)O)NC(=O)[C@H](CCCCN)NC(=O)[C@H](C)NC(=O)[C@H](CC(C)C)NC(=O)[C@@H](NC(=O)[C@H](CO)NC(=O)[C@H](CCCNC(=N)N)NC(=O)[C@H](CC(=O)O)NC(=O)[C@H](CC(C)C)NC(=O)[C@H](Cc1c[nH]c2ccccc12)NC(=O)[C@H](Cc1ccccc1)NC(=O)[C@H](Cc1ccccc1)NC(=O)[C@H](CC(C)C)NC(=O)[C@@H](N)CC(C)C)C(C)C)C(=O)O	2.9 nM	6.3 nM	2.6 nM		163 nM	518 nM		24 nM	86 nM	7.5 nM		34 nM
CC[C@H](C)[C@H](NC(=O)CNC(=O)[C@H](Cc1ccc(O)cc1)NC(=O)[C@H](CC(C)C)NC(=O)[C@H](CO)NC(=O)[C@H](CC(C)C)NC(=O)[C@H](CC(C)C)NC(=O)[C@H](CO)NC(=O)[C@@H](N)CC(C)C)C(=O)N[C@@H](Cc1c[nH]cn1)C(=O)N[C@@H](CCCCN)C(=O)N[C@@H](CCC(N)=O)C(=O)N[C@@H](CCCCN)C(=O)N[C@@H](CCC(=O)O)C(=O)N[C@@H](CCCCN)C(=O)O	656 nM	> 81800 nM	4440 nM	> 35700 nM	1640 nM	4960 nM		> 35000 nM	> 15000 nM	772 nM	3.4 nM	58 nM
CC[C@H](C)[C@H](NC(=O)[C@H](CCC(N)=O)NC(=O)[C@@H](N)CCCNC(=N)N)C(=O)N[C@@H](Cc1ccc(O)cc1)C(=O)N[C@H](C(=O)N[C@@H](C)C(=O)N[C@@H](C)C(=O)N[C@@H](Cc1ccccc1)C(=O)N[C@H](C(=O)N[C@H](C(=O)N[C@@H](CCC(N)=O)C(=O)N[C@@H](C)C(=O)N[C@@H](C)C(=O)N[C@@H](C)C(=O)N[C@@H](CCC(=O)O)C(=O)O)C(C)C)[C@@H](C)O)C(C)C	3.7 nM	28300 nM	1.2 nM		36 nM	91 nM	35 nM	524 nM	6810 nM	47 nM		
CC[C@H](C)[C@H](NC(=O)[C@H](CCCNC(=N)N)NC(=O)[C@@H](N)[C@@H](C)O)C(=O)N[C@@H](Cc1ccc(O)cc1)C(=O)N[C@@H](CC(N)=O)C(=O)N[C@H](C(=O)N[C@H](C(=O)NCC(=O)N[C@H](C(=O)N[C@@H](CC(C)C)C(=O)N[C@@H](CCCNC(=N)N)C(=O)NCC(=O)N[C@@H](C)C(=O)N[C@H](C(=O)N[C@@H](CCC(=O)O)C(=O)O)C(C)C)[C@@H](C)O)[C@@H](C)CC)C(C)C	14 nM	33300 nM	6.3 nM	4810 nM	70 nM	2900 nM	45 nM	1460 nM	17500 nM	447 nM	32 nM	
CC[C@H](C)[C@H](NC(=O)[C@@H](NC(=O)[C@@H](N)CO)C(C)C)C(=O)N[C@@H](CC(C)C)C(=O)N[C@@H](CC(C)C)C(=O)NCC(=O)N[C@@H](CCCNC(=N)N)C(=O)N[C@@H](Cc1c[nH]cn1)C(=O)N[C@@H](CO)C(=O)N[C@@H](CC(C)C)C(=O)N[C@@H](Cc1ccccc1)C(=O)N[C@@H](Cc1c[nH]cn1)C(=O)N1CCC[C@H]1C(=O)N[C@@H](CCC(=O)O)C(=O)N[C@@H](CC(=O)O)C(=O)O [SVILLGRHSLFHPED]	717 nM	1400 nM	12600 nM		500 nM	5220 nM	96 nM	96 nM	13000 nM	4410 nM	16100 nM	
